Test results: ChEMBL document CHEMBL1201862, “PubChem BioAssay data set” (2004)
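Grown in 96-well plates, cells were treated for 48 hours with each compound at five concentrations. Insufficient inhibition: endpoint recorded as highest concentration tested. GI50 = concentration required for 50% inhibition of growth.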 The source made the active and inactive calls. Rule as the data show it: active = GI50 up to about 1.1 µM and inactive = higher.

Columns and labels:
Test in all cases: NCI-60 cell line screen, 48 h
SF-539 = tested on: SF-539
UACC-257 = tested on: UACC-257
ACHN = tested on: ACHN
T47D = tested on: T47D
MOLT-4 = tested on: MOLT-4
BT-549 = tested on: BT-549
K562 = tested on: K562
SK-MEL-28 = tested on: SK-MEL-28
OVCAR-4 = tested on: OVCAR-4
A549 = tested on: A549
HT-29 = tested on: HT-29
MCF7 = tested on: MCF7
SN12C = tested on: SN12C
CCRF-CEM = tested on: CCRF-CEM
HCT-15 = tested on: HCT-15
A498 = tested on: A498
M14 = tested on: M14
OVCAR-3 = tested on: OVCAR-3
SW-620 = tested on: SW-620

SMILES	GI50 (SF-539)	GI50 (UACC-257)	GI50 (ACHN)	GI50 (T47D)	GI50 (MOLT-4)	GI50 (BT-549)	GI50 (K562)	GI50 (SK-MEL-28)	GI50 (OVCAR-4)	GI50 (A549)	GI50 (HT-29)	GI50 (MCF7)	GI50 (SN12C)	GI50 (CCRF-CEM)	GI50 (HCT-15)	GI50 (A498)	GI50 (M14)	GI50 (OVCAR-3)	GI50 (SW-620)
CN(C)c1ccc(/C=C2\C[C@H]3[C@@H]4CCc5cc(OCCN6CCCC6)ccc5[C@H]4CC[C@]3(C)C2=O)cc1	1.59 µM (inactive)	2.21 µM (inactive)	1.73 µM (inactive)	1.77 µM (inactive)	1.31 µM (inactive)	3.39 µM (inactive)	1.08 µM (active)	1.53 µM (inactive)	1.63 µM (inactive)	1.5 µM (inactive)	0.288 µM (active)	1.52 µM (inactive)	1.62 µM (inactive)	1.13 µM (inactive)	1.26 µM	1.96 µM (inactive)	–	–	–
CN1C(=O)C(=CNc2ccccc2[N+](=O)[O-])C(=O)N(C)C1=O	> 100 µM (inactive)	> 100 µM (inactive)	> 100 µM (inactive)	> 100 µM (inactive)	> 100 µM (inactive)	> 100 µM (inactive)	> 100 µM (inactive)	–	> 100 µM (inactive)	> 100 µM (inactive)	> 100 µM (inactive)	10 µM (inactive)	> 100 µM (inactive)	> 100 µM (inactive)	> 100 µM	> 100 µM (inactive)	> 100 µM (inactive)	> 100 µM (inactive)	> 100 µM (inactive)
O=C(Nc1c(C(F)(F)F)cc(-c2ccccc2)[nH]c1=O)N1CCOCC1	–	78.3 µM (inactive)	> 100 µM (inactive)	> 100 µM (inactive)	> 100 µM (inactive)	> 100 µM (inactive)	> 100 µM (inactive)	> 100 µM (inactive)	47.8 µM (inactive)	79.1 µM (inactive)	> 100 µM (inactive)	> 100 µM (inactive)	> 100 µM (inactive)	46.3 µM (inactive)	> 100 µM	> 100 µM (inactive)	> 100 µM (inactive)	70.8 µM (inactive)	> 100 µM (inactive)
C=CCN(c1cc(OC)c2[nH]cc(C)c2c1[N+](=O)[O-])S(C)(=O)=O	> 100 µM (inactive)	> 100 µM (inactive)	> 100 µM (inactive)	> 100 µM (inactive)	> 100 µM (inactive)	> 100 µM (inactive)	> 100 µM (inactive)	> 100 µM (inactive)	> 100 µM (inactive)	> 100 µM (inactive)	–	> 100 µM (inactive)	> 100 µM (inactive)	> 100 µM (inactive)	> 100 µM	> 100 µM (inactive)	> 100 µM (inactive)	> 100 µM (inactive)	> 100 µM (inactive)
CCCCN(CC)C(=O)C1=C(C)NC(C)=C(C(=O)N(CC)CCCC)C1	> 100 µM (inactive)	> 100 µM (inactive)	> 100 µM (inactive)	62.1 µM (inactive)	> 100 µM (inactive)	> 100 µM (inactive)	–	> 100 µM (inactive)	> 100 µM (inactive)	> 100 µM (inactive)	> 100 µM (inactive)	> 100 µM (inactive)	> 100 µM (inactive)	–	> 100 µM	> 100 µM (inactive)	> 100 µM (inactive)	> 100 µM (inactive)	> 100 µM (inactive)
CCCCCCCCCCCCCC(=O)OCC(CCS(=O)(=O)O[C@H]1CC[C@@]2(C)C(=CC[C@@H]3C2CC[C@]2(C)C(=O)CCC32)C1)OC(=O)CCCCCCCCCCCCC (some centres not stated)	> 100 µM (inactive)	> 100 µM (inactive)	> 100 µM (inactive)	> 100 µM (inactive)	–	> 100 µM (inactive)	> 100 µM (inactive)	> 100 µM (inactive)	> 100 µM (inactive)	> 100 µM (inactive)	> 100 µM (inactive)	> 100 µM (inactive)	> 100 µM (inactive)	> 100 µM (inactive)	> 100 µM	> 100 µM (inactive)	> 100 µM (inactive)	> 100 µM (inactive)	> 100 µM (inactive)
COc1cc(NS(C)(=O)=O)ccc1Nc1ccnc2ccc3[nH]ccc3c12	–	18.2 µM (inactive)	18.4 µM (inactive)	14.9 µM (inactive)	–	14.6 µM (inactive)	10.9 µM (inactive)	16.6 µM (inactive)	14.3 µM (inactive)	18.3 µM (inactive)	16.8 µM (inactive)	15.6 µM (inactive)	14.4 µM (inactive)	10.4 µM (inactive)	58.3 µM	16.8 µM (inactive)	16.4 µM (inactive)	15.3 µM (inactive)	13.3 µM (inactive)
CC1(C)C/N=C/C(C)(OCc2ccccc2)C(=O)NC(C)(C)C/N=C/C(C)(OCc2ccccc2)C(=O)N1 (configuration not stated)	> 10 µM (inactive)	> 10 µM (inactive)	> 10 µM (inactive)	> 10 µM (inactive)	> 10 µM (inactive)	> 10 µM (inactive)	> 10 µM (inactive)	> 10 µM (inactive)	–	> 10 µM (inactive)	> 10 µM (inactive)	> 10 µM (inactive)	> 10 µM (inactive)	> 10 µM (inactive)	> 10 µM	> 10 µM (inactive)	> 10 µM (inactive)	> 10 µM (inactive)	> 10 µM (inactive)
COc1ccc(-n2cnc3c(NCC(=O)O)ncnc32)cc1	–	> 100 µM (inactive)	> 100 µM (inactive)	> 100 µM (inactive)	> 100 µM (inactive)	> 100 µM (inactive)	> 100 µM (inactive)	> 100 µM (inactive)	> 100 µM (inactive)	> 100 µM (inactive)	> 100 µM (inactive)	> 100 µM (inactive)	> 100 µM (inactive)	48.5 µM (inactive)	> 100 µM	> 100 µM (inactive)	> 100 µM (inactive)	> 100 µM (inactive)	> 100 µM (inactive)
Cc1ccnc2nc3[nH]c4ccccc4c3cc12	> 100 µM (inactive)	89.5 µM (inactive)	> 100 µM (inactive)	> 100 µM (inactive)	> 100 µM (inactive)	48 µM (inactive)	> 100 µM (inactive)	–	> 100 µM (inactive)	> 100 µM (inactive)	> 100 µM (inactive)	> 100 µM (inactive)	> 100 µM (inactive)	75 µM (inactive)	> 100 µM	> 100 µM (inactive)	> 100 µM (inactive)	> 100 µM (inactive)	> 100 µM (inactive)
CCOC(=O)Cc1csc(N/N=C2\C(=O)Nc3ccccc32)n1	30.7 µM (inactive)	74.5 µM (inactive)	32.4 µM (inactive)	27.7 µM (inactive)	29 µM (inactive)	32.7 µM (inactive)	40.4 µM (inactive)	–	56.9 µM (inactive)	41.6 µM (inactive)	42.6 µM (inactive)	33.1 µM (inactive)	> 100 µM (inactive)	28.4 µM (inactive)	41 µM	27.4 µM (inactive)	41.7 µM (inactive)	25.3 µM (inactive)	48.9 µM (inactive)
CCOC1OC(CO)C(O)CC1n1ccc(=O)[nH]c1=O (configuration not stated)	> 100 µM (inactive)	> 100 µM (inactive)	> 100 µM (inactive)	> 100 µM (inactive)	–	> 100 µM (inactive)	> 100 µM (inactive)	> 100 µM (inactive)	> 100 µM (inactive)	> 100 µM (inactive)	> 100 µM (inactive)	> 100 µM (inactive)	> 100 µM (inactive)	–	> 100 µM	> 100 µM (inactive)	> 100 µM (inactive)	> 100 µM (inactive)	> 100 µM (inactive)
Cc1ccc(C(=O)/C=C2\Nc3ccccc3NC2=O)cc1	4.78 µM (inactive)	12.4 µM (inactive)	3.4 µM (inactive)	2.65 µM (inactive)	> 100 µM (inactive)	22.2 µM (inactive)	> 100 µM (inactive)	5.3 µM (inactive)	1.79 µM (inactive)	4.94 µM (inactive)	20 µM (inactive)	9.98 µM (inactive)	5.58 µM (inactive)	99.1 µM (inactive)	56.6 µM	20.5 µM (inactive)	9.27 µM (inactive)	2.99 µM (inactive)	–
CCN(CC)CCC1(C(=O)OC)SCCc2ccc(C)cc21 (configuration not stated)	> 100 µM (inactive)	> 100 µM (inactive)	> 100 µM (inactive)	> 100 µM (inactive)	> 100 µM (inactive)	> 100 µM (inactive)	> 100 µM (inactive)	> 100 µM (inactive)	> 100 µM (inactive)	> 100 µM (inactive)	–	> 100 µM (inactive)	> 100 µM (inactive)	> 100 µM (inactive)	> 100 µM	> 100 µM (inactive)	> 100 µM (inactive)	> 100 µM (inactive)	> 100 µM (inactive)
COC(=O)/C(C#N)=C(\Nc1ccccc1)N1CCCC1	> 100 µM (inactive)	> 100 µM (inactive)	> 100 µM (inactive)	> 100 µM (inactive)	> 100 µM (inactive)	> 100 µM (inactive)	> 100 µM (inactive)	> 100 µM (inactive)	> 100 µM (inactive)	> 100 µM (inactive)	> 100 µM (inactive)	> 100 µM (inactive)	> 100 µM (inactive)	–	> 100 µM	> 100 µM (inactive)	> 100 µM (inactive)	> 100 µM (inactive)	> 100 µM (inactive)
O=C(O)CNC(=O)c1ccc([As](=O)(O)O)cc1	–	–	> 100 µM (inactive)	> 100 µM (inactive)	> 100 µM (inactive)	> 100 µM (inactive)	> 100 µM (inactive)	> 100 µM (inactive)	> 100 µM (inactive)	> 100 µM (inactive)	> 100 µM (inactive)	> 100 µM (inactive)	> 100 µM (inactive)	> 100 µM (inactive)	> 100 µM	> 100 µM (inactive)	> 100 µM (inactive)	> 100 µM (inactive)	> 100 µM (inactive)
